Data reported in patent US11691980B2, “Liphagal analog and multi-targeted kinase inhibitor containing liphagal or analog thereof” (TOHOKU UNIVERSITY, priority 2017, dated 2023).

How the values were obtained:
[1] = target: T1, PKD1 (Homo sapiens, UniProt Q15139); assay: mobility shift assay; type: biochemical
T1 construct: purchased Carna Biosciences

[2] = target: CDK7/CycHMAT1 (Homo sapiens, UniProt P50613); assay: mobility shift assay; type: biochemical; parameters: purchased Carna Biosciences
CDK7/CycHMAT1, sequence (P50613 whole entry): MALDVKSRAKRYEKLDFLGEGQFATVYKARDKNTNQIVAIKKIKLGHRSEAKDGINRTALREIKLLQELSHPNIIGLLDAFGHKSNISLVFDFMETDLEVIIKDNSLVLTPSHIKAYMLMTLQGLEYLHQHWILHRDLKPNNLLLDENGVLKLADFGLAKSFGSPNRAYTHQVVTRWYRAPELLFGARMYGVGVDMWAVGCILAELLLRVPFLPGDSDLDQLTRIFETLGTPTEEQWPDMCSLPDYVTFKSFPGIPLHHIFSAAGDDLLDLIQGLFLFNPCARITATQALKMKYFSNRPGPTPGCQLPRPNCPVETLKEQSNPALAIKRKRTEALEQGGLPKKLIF
CDK7/CycHMAT1, sequence (P51946 whole entry partner): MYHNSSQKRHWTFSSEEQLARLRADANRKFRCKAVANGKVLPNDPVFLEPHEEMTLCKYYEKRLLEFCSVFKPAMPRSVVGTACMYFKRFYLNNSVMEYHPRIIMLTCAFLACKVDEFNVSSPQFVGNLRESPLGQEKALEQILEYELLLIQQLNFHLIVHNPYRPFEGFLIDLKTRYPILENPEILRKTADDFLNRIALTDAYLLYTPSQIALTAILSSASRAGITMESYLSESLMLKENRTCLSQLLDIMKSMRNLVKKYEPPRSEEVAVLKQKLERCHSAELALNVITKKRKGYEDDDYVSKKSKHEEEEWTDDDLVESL
CDK7/CycHMAT1, sequence (P51948 whole entry partner): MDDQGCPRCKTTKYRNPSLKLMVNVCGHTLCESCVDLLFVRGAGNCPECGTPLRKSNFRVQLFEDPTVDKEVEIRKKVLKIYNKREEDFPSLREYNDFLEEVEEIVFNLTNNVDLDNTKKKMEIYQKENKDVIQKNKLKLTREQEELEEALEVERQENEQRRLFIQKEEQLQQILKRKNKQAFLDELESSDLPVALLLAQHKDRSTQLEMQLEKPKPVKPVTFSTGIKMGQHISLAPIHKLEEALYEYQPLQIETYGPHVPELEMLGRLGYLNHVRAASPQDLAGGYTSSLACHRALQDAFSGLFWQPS

T1 sequence (Q15139 whole entry): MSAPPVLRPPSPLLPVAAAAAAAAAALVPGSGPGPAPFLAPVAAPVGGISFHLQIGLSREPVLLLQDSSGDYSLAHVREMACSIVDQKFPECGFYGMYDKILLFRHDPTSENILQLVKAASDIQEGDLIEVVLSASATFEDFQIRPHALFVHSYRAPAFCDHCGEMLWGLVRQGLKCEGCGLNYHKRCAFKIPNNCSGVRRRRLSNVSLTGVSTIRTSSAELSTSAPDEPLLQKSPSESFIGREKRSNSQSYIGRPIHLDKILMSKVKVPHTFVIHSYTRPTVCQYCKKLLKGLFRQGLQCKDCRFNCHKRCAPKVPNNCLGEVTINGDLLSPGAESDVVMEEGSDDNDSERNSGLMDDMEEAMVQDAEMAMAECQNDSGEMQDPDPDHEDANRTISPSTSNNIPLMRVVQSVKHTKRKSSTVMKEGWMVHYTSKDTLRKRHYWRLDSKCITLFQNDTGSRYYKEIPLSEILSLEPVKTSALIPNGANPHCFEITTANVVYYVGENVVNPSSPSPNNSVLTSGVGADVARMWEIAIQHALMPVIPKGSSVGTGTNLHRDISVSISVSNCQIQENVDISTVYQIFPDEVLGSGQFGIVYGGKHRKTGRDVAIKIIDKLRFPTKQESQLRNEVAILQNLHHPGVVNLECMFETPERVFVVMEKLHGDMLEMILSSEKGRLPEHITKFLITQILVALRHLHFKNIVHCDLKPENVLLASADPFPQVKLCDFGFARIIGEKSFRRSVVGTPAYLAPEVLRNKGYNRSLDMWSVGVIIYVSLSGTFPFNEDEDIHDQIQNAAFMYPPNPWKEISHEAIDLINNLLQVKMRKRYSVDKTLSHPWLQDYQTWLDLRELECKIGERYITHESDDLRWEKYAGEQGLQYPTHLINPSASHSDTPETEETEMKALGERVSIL

`C[C@@H]1CC[C@H]2C(C)(C)CCC[C@]2(C)c2c1oc1c(C=O)c(O)c(O)cc21` [LG-1, liphagal] was tested, and the inhibition at 10 µM [1] was 4.2%, the inhibition at 10 µM ([2]; CDK7/CycHMAT1) was 85.8% and the “inhibitory activity against CDK7” value ([2]; in words, 10 μM) was “Potent inhibitory activity”.
